We go through 4 compounds from patent US4239778A, “Azaprostanoic acid analogs and their use as inhibitors of platelet aggregation” (priority 1978, dated 1980).

Data set [1] deals with thromboxane synthetase. The data set is described as follows: TXB2 formation in response to added PGH2 in indomethacin-treated resuspended platelets (thromboxane synthetase). Type of data set: cell-based. On the procedure:
This possibility was examined by measuring the effect of 13-APA on TXB2 formation in response to added PGH2 (0.13 μg/ml). Platelets were isolated from EDTA-treated ([…]) PRP by centrifugation at 800 xg for 15 minutes. The platelet pellet was resuspended by gentle swirling in calcium-free Tyrode buffer (pH 7.4). […] Moreover, if it is assumed that TXA2 is the final mediator involved in prostaglandin activation, 13-APA must act to block the interaction of TXA2 with the platelet receptor.

Data set [2] deals with platelet conversion of AA to thromboxane B2 (TXB2). Description: TXB2 formation in platelet rich plasma aggregated with arachidonic acid (radioimmunoassay). Type of data set: cell-based. On the procedure: (§1) Platelet rich plasma was aggregated with 500 μM arachidonic acid and three minutes following arachidonate addition, aliquots of the plasma were drawn for TXB2 determinations.

In the next data set the test system is Swiss Webster mice. Type of data set: in vivo, mouse. The note with it: 30 mg/kg i.p. On the procedure:
(§2) Swiss Webster mice (25 gm) maintained on a Purina diet were injected intraperitoneally with either 0.1 ml corn oil or 0.1 ml corn oil containing 13-azaprostanoic acid (13-APA) of Example 5. The dose of 13-APA employed was 30 mg/kg. One hour subsequent to injection, 0.05 ml of a sodium arachidonate solution was administered by rapid I.V. through the tail vein to both control and drug-treated mice. The arachidonate was dissolved in 90% saline and 10% ethanol (95%).

For another data set, the system named is platelets. The data set is described as follows: PGH2-induced platelet aggregation (Table V). Type of data set: cell-based.
The subject of the next data set is mice. The data set is described as follows: Observation of mice after 30 mg/kg 13-APA. The note with it: months after dose. Type of data set: in vivo, mouse. On the procedure: as §2
Another data set deals with platelet receptor. Description: Platelet aggregation induced by direct agonist 9-epoxy CEE. Type of data set: cell-based. The note with it: 3 μM 9-epoxy CEE. An excerpt:
Such inhibitory activity has not been previously reported for any compound which selectively blocks AA-induced aggregation.

For a further data set, the system named is platelet rich plasma. The data set is described as follows: Platelet aggregation with 500 μM arachidonic acid (Table IV). Type of data set: cell-based. The method, then:
as §1

The subject of another data set is cyclooxygenase. The note with it: cited from earlier work.
The conditions of data set [3]: in vivo; cited from earlier work.
Another data set relates to platelet aggregation. The note with it: cited from earlier work.
Another data set concerns PGE2. The note with it: cited from earlier work.
Data set [4] relates to thromboxane synthetase. The note with it: cited from earlier work.
A further data set deals with prostacyclin synthetase. The note with it: cited from earlier work.
Another data set relates to platelet cAMP levels. The note with it: cited from earlier work.
The mark [5] stands for this setting: 1 h before I.V. arachidonate (100 mg/kg), number of mice of 4.
The mark [6] stands for this setting: AA 500 μM + imidazole 100 μg/ml.
Setting [7] is: AA 500 μM + imidazole 200 μg/ml.

Entries after “also recorded” stand apart in the source; their conditions may differ. Read-outs that look alike come from different tables or passages of the source.

As for `CCCCCCCN[C@H]1CCC[C@@H]1CCCCCCC(=O)O` [Example 13-APA, 13-azaprostanoic acid], the “platelet production of TXB2 (in words)” value in the data set with thromboxane synthetase [1] (13-APA 100 μM) was “no effect on platelet production of TXB2”. The TXB2 in the data set on thromboxane synthetase [1] (PGH2 […] + 13-APA 10 μM) came to 50 ± 2 ng/mL; in the data set with thromboxane synthetase [1] (PGH2 […] + 13-APA 50 μM), 44 ± 2 ng/mL; in the data set with thromboxane synthetase [1] (PGH2 […] + 13-APA 100 μM) it was 40 ± 2 ng/mL; in data set [2] (AA 500 μM + 13-APA 10 μM), 1164 ± 25 ng/mL; in data set [2] (AA 500 μM + 13-APA 50 μM), 750 ± 19 ng/mL. In data set [2] (Platelet, 0.05 h, 13-APA 50 μM, read-out: decrease of TXB2 formation), the inhibition at 50 µM turned out to be 36%. The compound also showed a Death with Swiss Webster mice (setting [5]) of 0. The “Severe Respiratory Distress” value in the data set on Swiss Webster mice (setting [5]) worked out at 0. For the same compound, the “symptoms of thromboembolism (in words)” value with Swiss Webster mice (arachidonate 100 mg/kg I.V.) is listed as “none of the symptoms of thromboembolism”. For the same compound, the “inhibition of PGH2-induced aggregation (in words)” value with platelets (13-APA 10 μM) is “completely effective in inhibiting PGH2 -induced aggregation”. In addition, the “% Aggregation” value was found to be 0% with platelets (PGH2 […] + 13-APA 10 μM); 0% in the data set on platelets (PGH2 […] + 13-APA 50 μM); 0% in the data set on platelets (PGH2 […] + 13-APA 100 μM); 80% with platelet rich plasma (AA 500 μM + 13-APA 10 μM); 0% with platelet rich plasma (AA 500 μM + 13-APA 50 μM). In the data set with mice, the “ill effects / toxicity (in words)” value was “no ill effects are evident”. The “inhibition of aggregation induced by 9-epoxy CEE (in words)” value in the data set with platelet receptor (13-APA 100 μM) is given as “completely inhibited”. In addition, the inhibition at 10 µM in the data set with platelet receptor (Platelet, 13-APA 10 μM) is ~60%. Moreover, in the data set with platelet rich plasma (13-APA 50 μM), the “inhibition of aggregation (in words)” value was “completely inhibits aggregation”.

In the case of `CC(=O)Oc1ccccc1C(=O)O` [aspirin], the “inhibition of prostaglandin biosynthesis / cyclooxygenase (in words)” value in the data set on cyclooxygenase is “inhibit prostaglandin biosynthesis by blocking the conversion of substrate fatty acids to endoperoxides”. The “bleeding times (in words)” value in data set [3] is given as “prolong bleeding times”.

For `CCCCCC/C=C/C1C2CC(N=N2)C1C/C=C\CCCC(=O)O` (centres unmarked) [azo prostanoic acid analog], the “effect on platelet aggregation (in words)” value was “inhibitor of platelet aggregation induced by PGH2, arachidonic acid, or collagen, and of the second wave of ADP or epinephrine-induced aggregation” in the data set with platelet aggregation; “suppressed the attendant aggregation induced by arachidonate in a parallel, concentration-dependent fashion” with platelet aggregation (listed as azo analog). For the same compound, the “inhibition of prostaglandin biosynthesis / cyclooxygenase (in words)” value with cyclooxygenase is reported as “cyclooxygenase enzyme was not affected”. Besides, in the data set on PGE2, the “PGE2 formation (in words)” value was “increase in PGE2”. The “inhibition of thromboxane synthetase (in words)” value is “potent inhibitor of thromboxane synthetase” in the data set on thromboxane synthetase [4] and “competitive inhibitor of PGH2 binding to the thromboxane synthetase enzyme; also recorded: selectively inhibit thromboxane synthetase in a concentration dependent fashion” in the data set with thromboxane synthetase [4] (listed as azo analog). Further, in the data set on prostacyclin synthetase, the “inhibition of prostacyclin synthetase (in words)” value was “inhibitory activity may also extend to prostacyclin synthetase”.

`c1c[nH]cn1` [imidazole]: in the data set with platelet aggregation, the “effect on platelet aggregation (in words)” value is “erratic; also recorded: potentiate aggregation in washed platelets”. The TXB2 in the data set with thromboxane synthetase [1] (PGH2 […] + imidazole 20 μg/ml) came to 26 ± 1 ng/mL; in the data set on thromboxane synthetase [1] (PGH2 […] + imidazole 100 μg/ml) it was 6 ± 1 ng/mL; in the data set on thromboxane synthetase [1] (PGH2 […] + imidazole 200 μg/ml) it was 3 ± 1 ng/mL; in data set [2] (AA 500 μM + imidazole 20 μg/ml), 669 ± 33 ng/mL; in [2] (setting [6]), 264 ± 7 ng/mL; in [2] (setting [7]), 138 ± 8 ng/mL. Moreover, the “thromboxane synthetase inhibition (in words)” value with thromboxane synthetase [1] (imidazole 20-200 μg/ml) is recorded as “blocks thromboxane synthetase in a dose dependent manner”. The “TXB2 formation (in words)” value in data set [2] (imidazole 200 μg/ml) is “substantial depression of TXB2 formation”. Besides, the “TXB2 levels versus control (in words)” value in [2] (imidazole decreased from 200 μg/ml to 20 μg/ml) is on record as “significantly lower than control”. Moreover, in the data set with platelet cAMP levels, the “changes in platelet cAMP levels (in words)” value is reported as “without inducing changes in platelet cAMP levels”. In addition, the “concentration necessary to achieve inhibition of thromboxane synthetase” value in the data set with thromboxane synthetase [4] is recorded as 2 mM. Moreover, the “inhibition of thromboxane synthetase (in words)” value with thromboxane synthetase [4] is given as “selectively inhibit thromboxane synthetase in a concentration dependent fashion”; with thromboxane synthetase [4] (listed as Imidazole), “selectively inhibits thromboxane synthetase”. Besides, the “% Aggregation” value in the data set on platelets (PGH2 […] + imidazole 20 μg/ml) is reported as 30%; with platelets (PGH2 […] + imidazole 100 μg/ml), 50%; in the data set with platelets (PGH2 […] + imidazole 200 μg/ml) it was 60%; in the data set on platelet rich plasma (AA 500 μM + imidazole 20 μg/ml), 21%; in the data set with platelet rich plasma (setting [6]) it was 11%; in the data set on platelet rich plasma (setting [7]) it was 5%. Also, the inhibition at 20 µg/mL in the data set on platelet rich plasma (Platelet, read-out: inhibition of aggregation) is ~75%.
